Measured values published in patent US20050170330A1, “Angiogensis models using nestin-expressing stem cells to image nascent blood vessels” (AntiCancer, Inc., priority 2003, published 2005).

What was measured:
[1] = test system: ND-GFP vessels growing from transplanted hair follicles; assay: ND-GFP vibrissa follicle transplantation into wounded nude-mouse skin, angiogenesis model; assay type: in vivo; settings: nude mice with transplanted ND-GFP vibrissa follicles, compared with carrier-only control group
Text: For transplantation purposes, vibrissa follicles from ND-GFP transgenic mice is surgically obtained as discussed in Example 8. All follicles are then kept in DMEM/F-12 medium containing B-27 supplement (GIBCO/BRL).
Recipient nude mice are anesthetized, and a sample of full-thickness skin is folded and two neighboring full-thickness wounds ˜15 mm apart are made with a 2-mm biopsy punch. ND-GFP vibrissa follicles are then transplanted. The incision is closed with nylon sutures (6-0).
The mice are divided into an experimental group and a control group. The experimental group received a treatment series comprising vascular endothelial growth factor, a known angiogenesis promoting compound in a pharmaceutically acceptable carrier. The control group of mice receives only the carrier.
Following treatment, samples of subcutis of the transplanted mice are subsequently excised and directly observed by fluorescence microscopy and air-dried or prepared for frozen sections for immunohistochemical staining. […]
The mice are divided into an experimental group and a control group. The experimental group received a treatment series comprising vasoinhibin, a known angiogenesis inhibiting compound in a pharmaceutically acceptable carrier. The control group of mice receives only the carrier.

[2] = test system: B16F10 murine melanoma cells; assay: Cord formation in vitro by B16F10 tumor cells; assay type: cell-based
Text: B16F10 murine melanoma cells are shown below to mimic endothelial cell behavior and the angiogenic process in vitro and in vivo. Cord formation in vitro by tumor cells is stimulated by hypoxia and vascular endothelial growth factor (VEGF) and inhibited by antibodies against VEGF and the VEGF KDR receptor (VEGF receptor 2).

vascular endothelial growth factor
angiogenic activity based on the amount of GFP activity [1]: higher degree of angiogenic activity | cord formation in vitro by tumor cells [2]: stimulated
